Results as given in patent US7132231B2, “Fluorescence polarization method for determining viral inhibitors” (priority 2001, dated 2006).

Columns and labels:
[1] = biological target: T1, Pol/UL42 interaction (Oregon Green-peptide E / MBP-UL42Δ340) (Human herpesvirus 1, UniProt P10226); assay: Fluorescence polarization (FP) assay of Pol peptide/UL42 binding; parameters: species or system herpes simplex virus; settings: for dose dependent change in the FP signal: serial dilution, FIG. 3
T1 construct: made in house; host or cells: E. coli BL21(de3)pLysS (UL42Δ340 fusion); peptide E synthetic
Method: Peptide probe and MBP-UL42. A peptide comprising the 18 C-terminal amino acids of HSV Pol (peptide E) was synthesized, N-terminally labeled with the pentafluorofluorescein-derivative Oregon Green 514 (Molecular Probes) and HPLC-purified. A truncated version of UL42 (UL42Δ340) was expressed in BL21(de3)pLysS E.coli as maltose binding protein fusion as described [Bridges et al. 2001] and purified over an amylose column (New England Biolabs). […] After elution with 10 mM maltose in 50 mM TrisHCl, 1 mM DTT, 0.5 mM EDTA, 4% Glycerol, 200 mM NaCl and Complete™ protease inhibitors (Roche Molecular Biochemicals), the protein was concentrated when necessary and stored at −80° C. until further use. After thawing, the purification buffer was exchanged to low fluorescent grade reagents (PanVera) and maltose was removed simultaneously using 10-DG Bio-Gel columns (BioRad). Fluorescence polarization assays. 1 nM of Oregon Green-peptide E was added to 7 uM MBP-UL42Δ340 and kept on ice until the mix was distributed into black 384-well plates (LJL Biosystems) in a total volume of 20 ul per well. The buffer conditions were 50 mM TrisHCl pH 7.5, 1 mM DTT, 0.5 mM EDTA, 150 mM NaCl, 4% Glycerol and 100 ug ml^−1 bovine gamma globulin. All chemicals were low fluorescent grade (PanVera).
Using this assay, the 16,320 compound Chembridge library that had been purchased by the Harvard Institute of Chemistry and Cell Biology (ICBB) was screened. Small molecules (5 mg ml^−1 in DMSO; ChemBridge) were screened using 384-pin arrays (Genetix), and 40 nl of each compound was transferred into every well. After incubation between 5 and 45 minutes at room temperature, the FP values were determined in the Analyst plate reader (LJL Biosystems). Chemicals for further testing were obtained from ChemBridge.
DNA polymerase long-chain synthesis assay. Compounds which elicited a decrease in the fluorescence polarization, when compared to control values, were tested for the ability to inhibit long-chain DNA synthesis via inhibition of polymerase subunit assembly [Digard et al. 1995; Bridges et al. 2001] using a poly-A template (Amersham Pharmacia) and an oligo-dT primer (Roche Molecular Biochemicals) on which Pol alone adds only a few bases. Reaction mixtures (50 mM Tris-HCl pH 7.5, 100 mM ammonium sulfate, 3 mM MgCl2, 0.1 mM EDTA, 1 mM DTT, 4% Glycerol, 40 ug ml^−1 BSA, 100 ug ml^−1 primer/template, 50 uM α-^32P-TTP (111 TBq/mmol; NEN Life Science products)), contained 200 fmol of HSV Pol ([Weisshart et al. 1994]), 400 fmol of HSV MBP-UL42 and varying amounts of compound in a final volume of 25 ul. Reactions were carried out at 37° C. for 5 minutes and stopped by adding 5 ul of alkaline loading buffer (2mM EDTA, 50mM NaOH, 2.5% glycerol, 0.025% bromocresol green) and placing them on ice and were then loaded onto an 4% alkaline agarose gel. Gels were dried over night and exposed to phosphorescence screens (BioRad). Catalytic subunit activity filter binding assay. Compounds which elicited a decrease in fluorescence polarization were tested for the ability to inhibit DNA synthesis by Pol alone using the oligo-(dT)/poly-(dA) primer-template. Reaction mixtures (50 mM TrisHCl pH 7.5, 100 mM ammonium sulfate, 3 mM MgCl2, 0.1 mM EDTA, 1 mM DTT, 4% Glycerol, 40 μg ml^31 1 BSA, 100 μg ml^−1 primer/template, 50 μM α-^32P-TTP (111 TBq/mmol)) contained 200 fmol of HSV Pol and various amounts of each compound in a final volume of 25 μl. Reactions were carried out at 37° C. for 25 minutes and stopped by placing 10 μl of the reaction mix onto DE81 filter discs. After washes in sodium hydrogen phosphate, water and ethanol, they were counted in a liquid scintillation analyzer (Packard 1600 TR). Plaque reduction assay. Confluent monolayers of Vero (African green monkey kidney) cells in 12-well dishes were infected with herpes virus strain 17 dilutions such that each well received between 25 and 50 PFU. […]

[2] = biological target: T2, Pol/UL42 long-chain DNA synthesis (HSV Pol + HSV MBP-UL42) (Human herpesvirus 1, UniProt P10226); assay: DNA polymerase long-chain synthesis assay; assay type: biochemical, herpes simplex virus; settings: for ability of UL42 to stimulate long-chain synthesis by Pol: FIG. 4, BP1, BP3, BP5 at 30 μM, BP9 at 100, 75, 50, 25 and 12 μM
T2 construct: in presence of the whole catalytic subunit; made in house; host or cells: UL42 fusion: E. coli BL21(de3)pLysS
Method: (§1) DNA polymerase long-chain synthesis assay. Compounds which elicited a decrease in the fluorescence polarization, when compared to control values, were tested for the ability to inhibit long-chain DNA synthesis via inhibition of polymerase subunit assembly [Digard et al. 1995; Bridges et al. 2001] using a poly-A template (Amersham Pharmacia) and an oligo-dT primer (Roche Molecular Biochemicals) on which Pol alone adds only a few bases. Reaction mixtures (50 mM Tris-HCl pH 7.5, 100 mM ammonium sulfate, 3 mM MgCl2, 0.1 mM EDTA, 1 mM DTT, 4% Glycerol, 40 ug ml^−1 BSA, 100 ug ml^−1 primer/template, 50 uM α-^32P-TTP (111 TBq/mmol; NEN Life Science products)), contained 200 fmol of HSV Pol ([Weisshart et al. 1994]), 400 fmol of HSV MBP-UL42 and varying amounts of compound in a final volume of 25 ul. Reactions were carried out at 37° C. for 5 minutes and stopped by adding 5 ul of alkaline loading buffer (2mM EDTA, 50mM NaOH, 2.5% glycerol, 0.025% bromocresol green) and placing them on ice and were then loaded onto an 4% alkaline agarose gel. Gels were dried over night and exposed to phosphorescence screens (BioRad). Catalytic subunit activity filter binding assay. Compounds which elicited a decrease in fluorescence polarization were tested for the ability to inhibit DNA synthesis by Pol alone using the oligo-(dT)/poly-(dA) primer-template. Reaction mixtures (50 mM TrisHCl pH 7.5, 100 mM ammonium sulfate, 3 mM MgCl2, 0.1 mM EDTA, 1 mM DTT, 4% Glycerol, 40 μg ml^31 1 BSA, 100 μg ml^−1 primer/template, 50 μM α-^32P-TTP (111 TBq/mmol)) contained 200 fmol of HSV Pol and various amounts of each compound in a final volume of 25 μl. Reactions were carried out at 37° C. for 25 minutes and stopped by placing 10 μl of the reaction mix onto DE81 filter discs. After washes in sodium hydrogen phosphate, water and ethanol, they were counted in a liquid scintillation analyzer (Packard 1600 TR). Plaque reduction assay. Confluent monolayers of Vero (African green monkey kidney) cells in 12-well dishes were infected with herpes virus strain 17 dilutions such that each well received between 25 and 50 PFU. Diluted virus was absorbed to cells in 2 ml Dulbecco's modified Eagle's medium containing 2.5% newborn calf serum, 100 U penicillin G ml^−1 and 100 ug streptomycin sulfate ml^−1 for 1 hour at 37° C. in a humidified CO2 incubator. After absorption, triplicate infected cultures were overlaid with 2% methyl cellulose in Dulbecco's modified Eagle's medium containing 5% newborn calf serum, 100 U penicillin G ml^−1, 100 ug streptomycin sulfate ml^−1 and various concentrations of the compounds which elicited a decrease in fluorescence polarization and incubated at 37° C. in a humidified CO2 incubator. Plaques were visualized by crystal violet staining at 2 to 3 days post infection and were counted on the following day [Coen et al. 1985]. Cytotoxicity assays. Vero cells (5×10^4 cells per well) were seeded into 96-well plates and treated with various concentrations of the compounds (which elicited a decrease in the fluorescence polarization) for 72 h in quadruplicates. […] In parallel, equally compound-treated cells were fixed by adding 95% ethanol, stained with crystal violet solution and washed. After addition of 100 ul acidified ethanol (EtOH:HCl=99:1) to dissolve the crystal violet, the plates were read in the plate reader (Wallac). Viral yield assay. Vero cells were seeded into 96-well (5×10^4 cells per well) tissue culture plates in 0.2 ml Dulbecco's modified Eagle's medium containing 2.5% newborn calf serum and 100 U penicillin G ml^−1. Cultures were inoculated with HSV strain 17 at an MOI of 5 PFU per cell. The virus inoculum was replaced after two hours with medium containing dilution series of test compounds and left for 24 hours. After two cycles of freeze-thawing, each drug dilution row was transferred to a freshly seeded 96-well plate and serially 1:3 diluted over the whole plate. After two days, plaques were stained and counted under a microscope [Pritchard et al. 1990]. […]

[3] = biological target: T3, HSV Pol (Human herpesvirus 1, UniProt P04293); assay: Catalytic subunit activity filter binding assay (Pol alone); assay type: biochemical, herpes simplex virus
T3 construct: in presence of the whole catalytic subunit
Method: as §1

[4] = biological target: T4, HSV Pol (Human herpesvirus 1, UniProt P04293, N46K); assay: as above; assay type: biochemical, herpes simplex virus; settings: at higher compound concentrations, FIG. 5
T4 construct: in presence of the whole catalytic subunit
Method: as §1

[5] = Cytotoxicity assay (XTT / crystal violet); assay type: cell-based, African green monkey; settings: monkey; for CC50 at 72 h: Vero cells, read-out: Toxicity IC50
Method: as §1, with “Vero cells were seeded into 96-well (5×10^4 cells per well) tissue culture plates in 0.2 ml Dulbecco's modified Eagle's medium containing 2.5% newborn calf serum and 100 U penicillin G ml^−1. Cultures were inoculated with HSV strain 17 at an MOI of 5 PFU per cell. The virus inoculum was replaced after two hours with medium containing dilution series of test compounds and left for 24 hours. After two cycles of freeze-thawing, each drug dilution row was transferred to a freshly seeded 96-well plate and serially 1:3 diluted over the whole plate.” left out

[6] = test system: HSV strain 17; assay: Viral yield assay; assay type: cell-based, herpes simplex virus; settings: Vero cells, MOI of 5, 24 h; read-out: ED90 viral yield reduction
Method: (§2) DNA polymerase long-chain synthesis assay. Compounds which elicited a decrease in the fluorescence polarization, when compared to control values, were tested for the ability to inhibit long-chain DNA synthesis via inhibition of polymerase subunit assembly [Digard et al. 1995; Bridges et al. 2001] using a poly-A template (Amersham Pharmacia) and an oligo-dT primer (Roche Molecular Biochemicals) on which Pol alone adds only a few bases. […] Compounds which elicited a decrease in fluorescence polarization were tested for the ability to inhibit DNA synthesis by Pol alone using the oligo-(dT)/poly-(dA) primer-template. […] After washes in sodium hydrogen phosphate, water and ethanol, they were counted in a liquid scintillation analyzer (Packard 1600 TR). […] After absorption, triplicate infected cultures were overlaid with 2% methyl cellulose in Dulbecco's modified Eagle's medium containing 5% newborn calf serum, 100 U penicillin G ml^−1, 100 ug streptomycin sulfate ml^−1 and various concentrations of the compounds which elicited a decrease in fluorescence polarization and incubated at 37° C. in a humidified CO2 incubator. Plaques were visualized by crystal violet staining at 2 to 3 days post infection and were counted on the following day [Coen et al. 1985]. […] After addition of 100 ul acidified ethanol (EtOH:HCl=99:1) to dissolve the crystal violet, the plates were read in the plate reader (Wallac). […]

[7] = test system: herpes virus strain 17; assay: Plaque reduction assay; assay type: cell-based, herpes simplex virus; settings: Vero cells, data not shown
Method: as §2

[8] = test system: Pol/UL42 long-chain DNA synthesis (HSV Pol + HSV MBP-UL42); settings: literature values [Digard et al. 1995; Bridges et al. 2000]; read-out: IC50 for specific inhibition of UL42 stimulated long-chain DNA synthesis; cited from earlier work

T2 sequence (P10226 1-339): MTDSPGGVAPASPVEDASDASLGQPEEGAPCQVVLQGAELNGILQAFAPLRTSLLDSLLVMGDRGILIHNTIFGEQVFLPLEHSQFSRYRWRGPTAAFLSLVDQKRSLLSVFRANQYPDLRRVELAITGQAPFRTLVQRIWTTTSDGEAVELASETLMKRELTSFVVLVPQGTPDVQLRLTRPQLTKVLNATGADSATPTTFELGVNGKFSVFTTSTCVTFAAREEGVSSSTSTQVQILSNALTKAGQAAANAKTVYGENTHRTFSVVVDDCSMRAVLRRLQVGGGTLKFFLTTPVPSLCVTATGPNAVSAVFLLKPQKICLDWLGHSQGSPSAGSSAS
T1 sequence (P10226 1-339, stated change not applied): as the sequence (P10226 1-339) above
T3 sequence (P04293 whole entry N46K): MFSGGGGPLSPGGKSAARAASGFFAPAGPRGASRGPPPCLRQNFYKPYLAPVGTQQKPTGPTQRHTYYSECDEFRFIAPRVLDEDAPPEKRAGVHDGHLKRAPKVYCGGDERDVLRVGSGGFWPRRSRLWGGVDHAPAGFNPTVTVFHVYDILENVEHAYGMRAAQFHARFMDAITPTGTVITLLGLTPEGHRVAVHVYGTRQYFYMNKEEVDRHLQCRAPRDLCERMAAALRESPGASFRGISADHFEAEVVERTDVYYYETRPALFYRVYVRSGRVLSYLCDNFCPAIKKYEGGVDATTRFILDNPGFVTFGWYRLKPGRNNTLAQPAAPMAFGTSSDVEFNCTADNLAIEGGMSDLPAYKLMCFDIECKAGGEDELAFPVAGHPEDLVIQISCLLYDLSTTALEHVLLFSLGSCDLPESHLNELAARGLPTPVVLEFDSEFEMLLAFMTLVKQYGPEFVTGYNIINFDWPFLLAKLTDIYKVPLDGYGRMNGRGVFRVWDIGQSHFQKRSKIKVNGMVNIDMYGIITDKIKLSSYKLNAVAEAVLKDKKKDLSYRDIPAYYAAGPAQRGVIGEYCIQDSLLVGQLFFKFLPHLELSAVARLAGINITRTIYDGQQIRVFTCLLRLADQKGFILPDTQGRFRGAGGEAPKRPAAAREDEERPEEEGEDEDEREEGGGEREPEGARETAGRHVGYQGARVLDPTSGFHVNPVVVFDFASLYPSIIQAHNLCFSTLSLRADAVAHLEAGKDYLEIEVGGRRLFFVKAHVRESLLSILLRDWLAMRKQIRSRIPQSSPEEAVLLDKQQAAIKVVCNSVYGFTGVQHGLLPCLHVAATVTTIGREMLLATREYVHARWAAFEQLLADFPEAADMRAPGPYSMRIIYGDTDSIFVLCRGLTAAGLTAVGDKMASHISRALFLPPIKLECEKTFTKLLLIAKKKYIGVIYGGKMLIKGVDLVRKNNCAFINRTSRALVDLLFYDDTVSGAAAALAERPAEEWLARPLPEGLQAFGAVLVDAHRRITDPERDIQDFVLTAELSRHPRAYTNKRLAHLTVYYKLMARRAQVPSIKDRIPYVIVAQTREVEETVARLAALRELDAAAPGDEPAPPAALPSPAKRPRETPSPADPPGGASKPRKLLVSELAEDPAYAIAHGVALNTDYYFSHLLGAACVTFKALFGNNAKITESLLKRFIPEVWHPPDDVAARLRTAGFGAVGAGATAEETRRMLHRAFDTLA
T4 sequence (P04293 whole entry N46K): as above

| Compound | IC50 [1] [µM] | dose dependent change in the FP signal [1] | IC50 [2] [µM] | ability of UL42 to stimulate long-chain synthesis by Pol [2] | IC50 [3] [µM] | Pol activity in absence of UL42 [4] | CC50 at 72 h [5] [µM] | CC50 ([5]; vero cells, Vero cell line, read-out: 50% toxic dose) [µM] | EC90 [6] [µM] | plaque formation [7] | IC50 [8] [µM] |
| --- | --- | --- | --- | --- | --- | --- | --- | --- | --- | --- | --- |
| Cc1ccc(C(C)C)cc1OCC(=O)NN=Cc1cc([N+](=O)[O-])ccc1O [BP1] | 35 | dose dependent change | 25 | greatly reduced | > 100 | did not show a significant change | 20 | – | – | – | – |
| CC(C)C(C(=O)O)N1C(=O)/C(=C/c2ccc(Cl)cc2Cl)SC1=S (stereo not drawn) [BP3] | 12 | dose dependent change | 30 | greatly reduced | 25 | significantly reduced | 200 | – | – | – | – |
| O=C(Nc1cccc2nsnc12)c1cc(Br)ccc1NS(=O)(=O)c1ccc(Cl)cc1 [BP5] | 15 | dose dependent change | 26 | greatly reduced | > 100 | did not show a significant change | 50 | 50 | 0.4 | completely abolish | – |
| CSCCC(C(=O)O)N1C(=O)/C(=C/c2ccc(Cl)cc2Cl)SC1=S (stereo not drawn) [BP9] | 48 | dose dependent change | 25 | greatly reduced | 25 | significantly reduced | 200 | – | – | – | – |
| CSCC[C@H](NC(=O)[C@H](CCCNC(=N)N)NC(=O)[C@H](CCCNC(=N)N)NC(=O)[C@@H](NC(=O)[C@H](CCC(=O)O)NC(=O)[C@H](CCC(=O)O)NC(=O)[C@H](C)NC(=O)[C@@H](NC(=O)[C@H](C)NC(=O)CNC(=O)[C@H](C)NC(=O)CNC(=O)[C@@H](NC(=O)[C@H](C)NC(=O)CNC(=O)[C@H](Cc1ccccc1)NC(=O)CNC(=O)[C@H](C)NC(=O)[C@@H](NC(=O)[C@H](CCCNC(=N)N)NC(=O)[C@H](CC(C)C)NC(=O)[C@H](CCCNC(=N)N)NC(=O)[C@H](C)NC(=O)[C@H](C)NC(=O)[C@@H](NC(=O)[C@H](CC(=O)O)NC(=O)[C@H](CC(=O)O)NC(C)=O)C(C)C)[C@@H](C)O)C(C)C)[C@@H](C)O)[C@@H](C)O)C(=O)N[C@@H](CC(C)C)C(=O)N[C@@H](Cc1c[nH]cn1)C(=O)N[C@@H](CCCNC(=N)N)C(=O)N[C@@H](C)C(=O)N[C@@H](Cc1ccccc1)C(=O)N[C@@H](CC(=O)O)C(=O)N[C@H](C(=O)N[C@@H](CC(C)C)C(=O)N[C@@H](C)C(N)=O)[C@@H](C)O [peptide A] | – | – | – | – | – | – | – | – | – | – | 3 |
| ATAEEETRRMLHRAFDTLA [peptide E, Ac-Ala-Thr-Ala-Glu-Glu-Glu-Thr-Arg-Arg-Met-Leu-His-Arg-Ala-Phe-Asp-Thr-Leu-Ala-NH2] | – | – | – | – | – | – | – | – | – | – | 11 |
